Active and inactive are the calls of the source. No cut-off for these calls is given here.
Key:
[1] = test system: Naegleria; experiment: (§1) Displacement of sodium 5-(3-(8-(3-carboxy-N-hydroxyacrylamido)octyl)thioureido)-2-(6-hydroxy-3-oxo-3H-xanthen-9-yl)benzoate from Naegleria Tet-1 at 5 mM incubated for 20 mins followed by sodium 5-(3-(8-(3-carboxy-N-hydroxyacrylamido)octyl)thioureido)-2-(6-hydroxy-3-oxo-3H-xanthen-9-yl)benzoate addition and further incubated 4 hrs and measured upto 20 hrs by competition fluorescence polarization assay; details: time hrs <=20
[2] = as §1, with “Tet-1” for “Tet-1 at 5 mM”
[3] = Binding affinity to Naegleria Tet1 assessed as dissociation constant incubated for 4 hrs and measured upto 20 hrs by fluorescence polarization assay

Row | inhibition [1] | IC50 [2] [µM] | Ki [2] [µM] | Kd [3] [µM] | Compound
1 |  | 49 | 16 |  | O=C(O)CNC(=O)C(=O)O [N-OXALYLGLYCINE]
2 |  | 27 | 9 |  | O=C(O)c1ccnc(C(=O)O)c1
3 |  | 250 | 83 |  | O=C(O)CCC(=O)C(=O)O [ALPHA-KETOGLUTARIC ACID]
4 |  |  |  | 0.25 | O=C(O)/C=C/C(=O)N(O)CCCCCCCCNC(=S)Nc1ccc(-c2c3ccc(=O)cc-3oc3cc(O)ccc23)c(C(=O)O)c1

The next lines start with the compound.

Row | Compound | inhibition [1] | IC50 [2] [µM] | Ki [2] [µM] | Kd [3] [µM]
5 | Nc1nc(=O)n([C@H]2C[C@H](O)[C@@H](CO)O2)cc1CO | inactive |  |  | 
6 | O=C(O)CC[C@@H](O)C(=O)O |  | 5200 | 1700 | 
7 | Cc1cn([C@H]2C[C@H](O)[C@@H](CO)O2)c(=O)nc1N | inactive |  |  | 

Source: ChEMBL document CHEMBL4715804, “A Fluorescence Polarization Biophysical Assay for the Naegleria DNA Hydroxylase Tet1” (ACS Med Chem Lett, 2016)
